Read-outs that look alike come from different tables or passages of the source.
Columns and labels:
[1] = Dissolution capacity of diluents/solvents for Dioxacarb and Arprocarb; type: physicochemical
[2] = at 25° C
[3] = at 20° C, solute Arprocarb, footnotes

CCCCCCCCCCCCCCBr [1-Bromotetradecane]
Dissolution capacity for DIOXACARB ([1]; at 20° C, solute Dioxacarb): 0.1 weight % | Vapour pressure [2]: < 0.001 Torr | Vapour pressure ([2]; listed as 1-bromotetradecane): < 0.005 Torr

CCCCCl [1-Chlorobutane]
Dissolution capacity for DIOXACARB ([1]; at 20° C, solute Dioxacarb): 2 weight % | Dissolving capacity for Dioxacarb ([1]; at 20° C, solute Dioxacarb): 2% | Vapour pressure [2]: 102 Torr

CCCCCCCCCCCCCCCCCl [1-Chlorohexadecane]
Dissolving capacity for Arprocarb of the 1:1 mixture with 5-(3,6,9-trioxa-un-decyl-2-oxy)-1,3-benzodioxole ([1]; at 20° C, 1:1 mixture with T.U.O.B.): 2% | Dissolution capacity for ARPROCARB ([1]; at 20° C, solute Arprocarb): 0.4 weight % | Dissolving capacity for Arprocarb [1, 3]: 0.4% | Dissolution capacity for DIOXACARB ([1]; at 20° C, solute Dioxacarb): 0.7 weight % | Dissolving capacity for Dioxacarb ([1]; at 20° C, solute Dioxacarb): 0.7% | Vapour pressure [2]: < 0.0001 Torr | Vapour pressure ([2]; listed as 1-chlorohexadecane): < 0.005 Torr | Vapour pressure ([2]; listed as Chlorohexadecane): below 0.0001 Torr

CC(Cl)(Cl)Cl [1.1.1-Trichloro-ethane]
Dissolution capacity for DIOXACARB ([1]; at 20° C, solute Dioxacarb): 2.3 weight % | Dissolving capacity for Dioxacarb ([1]; at 20° C, solute Dioxacarb): 2.3% | Vapour pressure [2]: 121 Torr

CCC(N)(CO)CO [2-Amino-2-ethyl-1,3-propanediol]
Dissolution capacity for DIOXACARB ([1]; at 20° C, solute Dioxacarb): 2.4 weight % | Vapour pressure [2]: 0.01 Torr

CCCCCCCCCCCCC1CC(=O)OC1=O (stereo not shown) [2-Dodecylsuccinic-acid anhydride]
Dissolution capacity for DIOXACARB ([1]; at 20° C, solute Dioxacarb): 2.9 weight % | Vapour pressure [2]: 0.007 Torr

COCCO [2-Methoxyethanol]
Dissolution capacity for DIOXACARB [1]: 15 weight % | Dissolving capacity for Dioxacarb [1]: about 15% | Vapour pressure [2]: 8.6 Torr

COCCOC(C)=O [2-Methoxyethyl acetate]
Dissolution capacity for ARPROCARB ([1]; at 20° C, solute Arprocarb): 33 weight % | Dissolution capacity for DIOXACARB ([1]; at 20° C, solute Dioxacarb): 20 weight % | Vapour pressure [2]: 5 Torr

CCCCOCCOCCOCCCC [5,8,11-Trioxapentadecane, 5,8,11-Trioxapenta-decane]
Dissolution capacity for DIOXACARB ([1]; at 20° C, solute Dioxacarb): 3.2 weight % | Vapour pressure [2]: 0.002 Torr

CC(C)=O [Acetone]
Dissolution capacity for DIOXACARB [1]: 28 weight % | Dissolving capacity for Dioxacarb [1]: 28% | Vapour pressure [2]: 225 Torr

CC#N [Acetonitrile]
Dissolution capacity for DIOXACARB ([1]; at 20° C, solute Dioxacarb): 35.5 weight % | Dissolving capacity for Dioxacarb ([1]; at 20° C, solute Dioxacarb): 35.5% | Vapour pressure [2]: 86 Torr

CCCCCO [Amylalcohol]
Dissolution capacity for DIOXACARB ([1]; at 20° C, solute Dioxacarb): 2.6 weight % | Dissolving capacity for Dioxacarb ([1]; at 20° C, solute Dioxacarb): 2.6% | Vapour pressure [2]: 2.5 Torr

c1ccccc1 [Benzene]
Dissolution capacity for DIOXACARB [1]: 3 weight % | Dissolving capacity for Dioxacarb [1]: 3%

CCCCOC(C)=O [Butylacetate]
Dissolution capacity for DIOXACARB [1]: 5 weight % | Vapour pressure [2]: 11 Torr

CCCCCCCCCCCCO [Composition 1-Dodecanol, 1-Dodecanol]
Dissolution capacity for DIOXACARB ([1]; at 20° C, solute Dioxacarb): 0.8 weight % | Vapour pressure [2]: 0.001 Torr

CCCCC(CC)COC(=O)CCCCC(=O)OCC(CC)CCCC (stereo not shown) [Di(2-ethylhexyl)adipate)]
Dissolution capacity for ARPROCARB ([1]; at 20° C, solute Arprocarb): 2.8 weight % | Dissolving capacity for Arprocarb [1, 3]: 2.8% | Dissolution capacity for DIOXACARB ([1]; at 20° C, solute Dioxacarb): 2.0 weight % | Vapour pressure [2]: 0.007 Torr | Vapour pressure ([2]; listed as Di(2-ethyl-hexyl) adipate): ~0.007 Torr | Vapour pressure ([2]; listed as di(ethyl-2-hexyl) adipate): < 0.005 Torr

CCCCOC(=O)c1ccccc1C(=O)OCCCC [Dibutylphthalate]
Dissolution capacity for DIOXACARB ([1]; at 20° C, solute Dioxacarb): 2.7 weight % | Dissolving capacity for Dioxacarb ([1]; at 20° C, solute Dioxacarb): 2.7% | Vapour pressure [2]: < 0.0001 Torr | Vapour pressure ([2]; listed as Dibutyl phthalate): ca. 0.0001 Torr | Vapour pressure ([2]; listed as dibutylphthalate): < 0.005 Torr

ClCCl [Dichloromethane]
Dissolution capacity for ARPROCARB [1]: 48 weight % | Dissolution capacity for DIOXACARB [1]: 45 weight % | Dissolving capacity for Arprocarb [1]: approximately 48% | Dissolving capacity for Dioxacarb [1]: 45% | Vapour pressure [2]: 420 Torr

CCCCCCCCOC(=O)c1ccccc1C(=O)OCCCCCCCC [Dioctylphthalate]
Dissolution capacity for ARPROCARB ([1]; at 20° C, solute Arprocarb): 2.6 weight % | Dissolving capacity for Arprocarb [1, 3]: 2.6% | Dissolution capacity for DIOXACARB ([1]; at 20° C, solute Dioxacarb): 0.1 weight % | Dissolving capacity for Dioxacarb ([1]; at 20° C, solute Dioxacarb): 0.1% | Vapour pressure [2]: < 0.0001 Torr | Vapour pressure ([2]; listed as Dioctyl phthalate): below 0.0001 Torr | Vapour pressure ([2]; listed as dioctylphthalate): < 0.005 Torr

C1COCCO1 [Dioxan]
Dissolution capacity for DIOXACARB ([1]; at 20° C, solute Dioxacarb): 23 weight % | Dissolving capacity for Dioxacarb ([1]; at 20° C, solute Dioxacarb): 23% | Vapour pressure [2]: 35 Torr

CCO [Ethanol]
Dissolution capacity for ARPROCARB [1]: 0.3 weight % | Dissolution capacity for DIOXACARB [1]: 0.2 weight % | Dissolving capacity for Arprocarb [1]: 40% | Dissolving capacity for Dioxacarb [1]: 8%

CCOC(C)=O [Ethylacetate]
Dissolution capacity for DIOXACARB ([1]; at 20° C, solute Dioxacarb): 10.5 weight % | Dissolving capacity for Dioxacarb ([1]; at 20° C, solute Dioxacarb): 10.5% | Vapour pressure [2]: 97 Torr

CCCC(=O)OCC [Ethylbutyrate]
Dissolution capacity for DIOXACARB ([1]; at 20° C, solute Dioxacarb): 7 weight % | Vapour pressure [2]: 17 Torr

CCOC(=O)CC [Ethylpropionate]
Dissolution capacity for DIOXACARB ([1]; at 20° C, solute Dioxacarb): 9 weight % | Vapour pressure [2]: 37 Torr

OCC(O)CO [Glycerol]
Dissolution capacity for DIOXACARB ([1]; at 20° C, solute Dioxacarb): 0.6 weight % | Vapour pressure [2]: < 0.0001 Torr

CCCCCCC [Heptane]
Dissolution capacity for ARPROCARB ([1]; at 20° C, solute Arprocarb): 0.3 weight % | Dissolving capacity for Arprocarb [1, 3]: 0.3% | Dissolving capacity for Dioxacarb ([1]; at 20° C, solute Dioxacarb): about 0.2% | Vapour pressure [2]: 38.5 Torr

CCCCCCCCCCCCCCCC [Hexadecane]
Dissolution capacity for DIOXACARB ([1]; at 20° C, solute Dioxacarb): 0 weight % | Vapour pressure [2]: 0.003 Torr | Vapour pressure ([2]; listed as hexadecane): < 0.005 Torr

CCCCCC [Hexane]
Dissolution capacity for ARPROCARB ([1]; at 20° C, solute Arprocarb): 0.3 weight % | Dissolving capacity for Arprocarb [1, 3]: 0.3% | Dissolution capacity for DIOXACARB ([1]; at 20° C, solute Dioxacarb): 0.2 weight % | Dissolving capacity for Dioxacarb ([1]; at 20° C, solute Dioxacarb): approximately 0.2% | Vapour pressure [2]: 151 Torr

CC(=O)OCC(C)C [Isobutylacetate]
Dissolution capacity for DIOXACARB ([1]; at 20° C, solute Dioxacarb): 6 weight % | Vapour pressure [2]: 17 Torr

CC(C)O [Isopropanol]
Dissolution capacity for ARPROCARB ([1]; at 20° C, solute Arprocarb): 30 weight % | Dissolving capacity for Arprocarb [1, 3]: approximately 30% | Dissolution capacity for DIOXACARB ([1]; at 20° C, solute Dioxacarb): 4.5 weight % | Dissolving capacity for Dioxacarb ([1]; at 20° C, solute Dioxacarb): 4.5% | Vapour pressure [2]: 44 Torr

CC(=O)OC(C)C [Isopropylacetate]
Dissolution capacity for DIOXACARB ([1]; at 20° C, solute Dioxacarb): 6 weight % | Vapour pressure [2]: 55 Torr

CCCCCCCCCCCCCC(=O)OC(C)C [Isopropylmyristate]
Dissolution capacity for ARPROCARB ([1]; at 20° C, solute Arprocarb): 1.3 weight % | Dissolving capacity for Arprocarb [1, 3]: 1.3% | Dissolution capacity for DIOXACARB ([1]; at 20° C, solute Dioxacarb): 0.3 weight % | Dissolving capacity for Dioxacarb ([1]; at 20° C, solute Dioxacarb): 0.3% | Vapour pressure ([2]; listed as Isopropyl myristate): ca. 0.001 Torr | Vapour pressure ([2]; listed as isopropylmyristate): < 0.005 Torr

CO [Methanol]
Dissolution capacity for DIOXACARB ([1]; at 20° C, solute Dioxacarb): 20.5 weight % | Dissolving capacity for Dioxacarb ([1]; at 20° C, solute Dioxacarb): 20.5% | Vapour pressure [2]: 127 Torr

COC(C)=O [Methylacetate]
Dissolution capacity for ARPROCARB ([1]; at 20° C, solute Arprocarb): 41 weight % | Dissolving capacity for Arprocarb [1, 3]: 41% | Dissolution capacity for DIOXACARB ([1]; at 20° C, solute Dioxacarb): 19.6 weight % | Dissolving capacity for Dioxacarb ([1]; at 20° C, solute Dioxacarb): 19.6% | Vapour pressure [2]: 216 Torr

CCCC(=O)OC [Methylbutyrate]
Dissolution capacity for DIOXACARB ([1]; at 20° C, solute Dioxacarb): 8 weight % | Vapour pressure [2]: 34 Torr

CCC(C)=O [Methylethylketone]
Dissolution capacity for DIOXACARB ([1]; at 20° C, solute Dioxacarb): 5 weight % | Vapour pressure [2]: 20 Torr

CCC(=O)OC [Methylpropionate]
Dissolution capacity for DIOXACARB ([1]; at 20° C, solute Dioxacarb): 12 weight % | Vapour pressure [2]: 83 Torr

C[N+](=O)[O-] [Nitromethane]
Dissolution capacity for DIOXACARB ([1]; at 20° C, solute Dioxacarb): 27.5 weight % | Dissolving capacity for Dioxacarb ([1]; at 20° C, solute Dioxacarb): 27.5% | Vapour pressure [2]: 34 Torr

CCCCCCCC(=O)O [Octanoic acid]
Dissolution capacity for DIOXACARB ([1]; at 20° C, solute Dioxacarb): 1.5 weight % | Vapour pressure [2]: 0.002 Torr

CCCCCCCC/C=C\CCCCCCCC(=O)O [Oleic acid]
Dissolution capacity for DIOXACARB ([1]; at 20° C, solute Dioxacarb): 1.2 weight % | Vapour pressure [2]: 0.0002 Torr

CCCCCCCC/C=C/CCCCCCCC(=O)CCCCCCC/C=C/CCCCCCCC [Oleone]
Dissolution capacity for DIOXACARB ([1]; at 20° C, solute Dioxacarb): 0.2 weight % | Vapour pressure [2]: < 10^-6 Torr

CCCCC [Pentane]
Dissolution capacity for ARPROCARB [1]: 0.3 weight % | Dissolution capacity for DIOXACARB [1]: 0.2 weight % | Dissolving capacity for Arprocarb [1]: 0.3% | Dissolving capacity for Dioxacarb [1]: approximately 0.2% | Vapour pressure [2]: 513 Torr

CCCOC(C)=O [Propylacetate]
Dissolution capacity for DIOXACARB ([1]; at 20° C, solute Dioxacarb): 6 weight % | Vapour pressure [2]: 33 Torr

CCOCCOCCOC(C)Oc1ccc2c(c1)OCO2 (stereo not shown) [T.U.O.B., 5-(3,6,9-trioxa-undecyl-2-oxy)-1,3-benzodioxole]
Dissolution capacity for ARPROCARB ([1]; at 20° C, solute Arprocarb): 5.0 weight % | Dissolving capacity for Arprocarb [1, 3]: 5% | Dissolution capacity for DIOXACARB ([1]; at 20° C, solute Dioxacarb): 2.9 weight % | Dissolving capacity for Dioxacarb ([1]; at 20° C, solute Dioxacarb): 2.9% | Vapour pressure [2]: < 0.005 Torr

C1CCOC1 [Tetrahydrofuran]
Dissolution capacity for ARPROCARB ([1]; at 20° C, solute Arprocarb): 50 weight % | Dissolving capacity for Arprocarb [1, 3]: approximately 50% | Dissolution capacity for DIOXACARB ([1]; at 20° C, solute Dioxacarb): 33.5 weight % | Dissolving capacity for Dioxacarb ([1]; at 20° C, solute Dioxacarb): 33.5% | Vapour pressure [2]: 176 Torr

ClC=C(Cl)Cl [Trichloroethylene]
Dissolution capacity for DIOXACARB ([1]; at 20° C, solute Dioxacarb): 2 weight % | Dissolving capacity for Dioxacarb ([1]; at 20° C, solute Dioxacarb): approximately 2% | Vapour pressure [2]: 74 Torr

ClC(Cl)Cl [Trichloromethane]
Dissolution capacity for DIOXACARB [1]: 34 weight % | Dissolving capacity for Dioxacarb [1]: 34% | Vapour pressure [2]: 194 Torr | Vapour pressure ([2]; listed as Chloroform): 194 Torr

CCC(C)OC(C)=O (stereo not shown) [sec. Butylacetate]
Dissolution capacity for DIOXACARB ([1]; at 20° C, solute Dioxacarb): 6 weight % | Vapour pressure [2]: 26 Torr

Tetrachlorodiphenyle
Dissolution capacity for DIOXACARB ([1]; at 20° C, solute Dioxacarb): 1.3 weight % | Dissolving capacity for Dioxacarb ([1]; at 20° C, solute Dioxacarb): 1.3% | Vapour pressure [2]: < 0.001 Torr | Vapour pressure ([2]; listed as Tetrachlorodiphenyl): below 0.001 Torr | Vapour pressure ([2]; listed as tetrachlorodiphenyl): < 0.005 Torr

ter. Dodecanethiol
Dissolution capacity for DIOXACARB ([1]; at 20° C, solute Dioxacarb): 0.2 weight % | Vapour pressure [2]: 0.008 Torr

Reference: patent publication US4067990A, “Process for the preparation of insecticidal compositions based on carbamic esters” (Airwick Industries, Inc., priority 1971, dated 1978)
